Measurements from patent publication US9889094B2, “Particle size reduction of an antimuscarinic compound” (CHIESI FARMACEUTICI S.p.A., priority 2013, dated 2018).
Where two headings read alike, the source gives them in different places.

What was measured:
[1] = Scanning Electron Microscopy (SEM) of particles; format: physicochemical; conditions: after the homogenization step, Example 1 (2H,3H-decafluoropentane); platelet-like particles
[2] = Crystallinity / polymorphic form by X-ray powder diffraction and DSC; format: physicochemical; conditions: for XRD: Example 1 powder, storage 22±2° C., 60% relative humidity
[3] = Drying and re-dispersion after wet bead milling in acetone (comparative example); format: physicochemical; conditions: wet bead milled in acetone, 200 rpm, 60 minutes; dried at 25° C. under low vacuum; white to off-white solid cake
Protocol: The vessel was sealed and the suspension homogenized into the planetary mill apparatus disclosed in WO 2007/020407, which is incorporated herein by reference in its entirety, at a disc speed of 200 rpm for 60 minutes at ambient temperature and pressure. After 60 minutes, the resulting drug suspension is separated from the milling media by filtering through a nylon mesh and the resulting drug suspension loaded into a drying tray.

[4] = Specific surface area by BET nitrogen adsorption; format: physicochemical; conditions: Example 1 powder; for BET SSA: storage 22±2° C., 60% relative humidity
Protocol: Advantageously, the specific surface area of the obtained particles upon drying and sieving, is from to 8 m^2/g, advantageously from to 7 m^2/g, preferably from 3 to 6 m^2/g. The Specific Surface Area is determined by Brunauer-Emmett-Teller (BET) nitrogen adsorption method according to a procedure known in the art.
Alternatively, the physical stability may be measured using the specific surface area of the drug particles analysed by adsorption analysis, BET surface measurement, according to a method known to the skilled person.
Specific surface area (SSA) of the dried and sieved particles, analyzed by BET nitrogen adsorption method, was determined to be of about 4.3 m^2/g.

[5] = Crystallinity / polymorphic form by DVS; format: physicochemical; conditions: Example 4 final product (dichloromethane) compared to the initial coarse drug
[6] = Example 1 powder (2H,3H-decafluoropentane), storage 22±2° C., 60% relative humidity, time 0
[7] = Example 1 powder, storage 22±2° C., 60% relative humidity, 1 W
[8] = Example 1 powder, storage 22±2° C., 60% relative humidity, 2 W
[9] = Example 1 powder, storage 22±2° C., 60% relative humidity, 3 M
[10] = Example 1 powder, storage 22±2° C., 60% relative humidity, 4 W
[11] = Example 4 powder (dichloromethane), time 0
[12] = Example 5 powder (perfluoroheptane isomer mixture), 45 minutes processing, time 0

## C[N+]1(C)CCC(OC(=O)C(O)(c2ccccc2)C2CCCC2)C1 (racemic) [rac-glycopyrronium bromide, (3S,2′R), (3R,2′S)-3-[(cyclopentylhydroxyphenylacetyl)oxy]-1,1-dimethylpyrrolidinium bromide]
[1]
  average particle size by SEM: below 5 μm
[2]; Example 1 final product compared to the initial coarse drug
  change in degree of crystallinity or polymorphic form (XPRD and DSC): no change in degree of crystallinity or polymorphic form
[2]; 4 W
  XRD: Crystalline
[2]; time 0
  XRD: Crystalline
[3]
  re-dispersibility of dried product: could not be re-dispersed under mechanical agitation
[4]; dried and sieved particles
  Specific surface area (SSA): about 4.3 m^2/g
[4]; 1 W
  BET SSA: 4.198 m^2/g
[4]; 2 W
  BET SSA: 4.210 m^2/g
[4]; 3 M
  BET SSA: 4.00 m^2/g
[4]; 4 W
  BET SSA: 4.086 m^2/g
[4]; time 0
  BET SSA: 4.326 m^2/g
[6]
  PSD d(v0.1): 0.71
  PSD d(v0.5): 1.85
  PSD d(v0.9): 4.77
Example 1 powder after micronization and drying (2H,3H-decafluoropentane)
  d(v0.5): 1.85 μm
Example 1 powder, storage 22±2° C., 60% relative humidity, up to 3 months
  change of particle size upon storage: does not significantly change
[7]
  PSD d(v0.1): 0.72
  PSD d(v0.5): 1.92
  PSD d(v0.9): 5.03
[8]
  PSD d(v0.1): 0.72
  PSD d(v0.5): 1.88
  PSD d(v0.9): 4.95
[9]
  PSD d(v0.1): 0.75
  PSD d(v0.5): 2.07
  PSD d(v0.9): 5.26
[10]
  PSD d(v0.1): 0.72
  PSD d(v0.5): 1.93
  PSD d(v0.9): 4.97
[11]
  PSD d(v0.1): 0.80
  PSD d(v0.5): 2.06
  PSD d(v0.9): 6.46
Example 4 powder after micronization and drying (dichloromethane)
  d(v0.5): 2.06 μm
[12]
  PSD d(v0.1): 0.66
  PSD d(v0.5): 1.70
  PSD d(v0.9): 4.31
[5]
  change in degree of crystallinity or polymorphic form (DVS): no change in degree of crystallinity or polymorphic form
